US7396841B2, “Injections” (Takeda Pharmaceutical Company Limited, priority 2000, dated 2008)

Assay: Dissolution of compound A in equimolar 0.2 mol/L sodium hydroxide and appearance of aqueous preparations (Examples 1 and 2)
Type: physicochemical
Procedure: The resultant solutions (1 mL and 2 mL) were filled into vials to prepare injectable compositions of formulations 1 and 2 in Table 1.
In accordance with the formulation of preparation solution in Table 2, the compound A was dissolved in the equivalent amount (in molar ratio) of a sodium hydroxide aqueous solution (0.2 mol/L), and then mannitol, N-methylglucamine and a water for injection were added thereto to dissolve followed by sterile filtration with a filter (0.22 μm) made from Durapola (manufactured by Nihon Millipore Ltd.) to prepare a preparation solution for injectable composition A.

Appearance of resultant solution (compound A in equimolar sodium hydroxide aqueous solution (0.2 mol/L)): transparent and colorless | Dissolution of compound A (in the equivalent amount (in molar ratio) of a sodium hydroxide aqueous solution (0.2 mol/L)): quickly dissolved
SMILES: Cc1c(OCC(F)(F)F)ccnc1C[S+]([O-])c1nc2ccccc2[nH]1 (centres unmarked) [Compound A, 2-[[[3-methyl-4-(2,2,2-trifluoroethoxy)-2-pyridinyl]methyl]sulfinyl]-1H-benzimidazole]
